The source of these data is ChEMBL document CHEMBL3639094, “Organic compounds” (2014).

pIC50: −log10 of the molar value.

Usually pIC50 stands for the IC50 on a negative log10 scale, so that one unit is a factor of ten. High values mean a small IC50, low ones a large IC50.

For the test, the target named is T1, Cholesteryl ester transfer protein (Homo sapiens, UniProt P11597).
T1 sequence (P11597 whole entry): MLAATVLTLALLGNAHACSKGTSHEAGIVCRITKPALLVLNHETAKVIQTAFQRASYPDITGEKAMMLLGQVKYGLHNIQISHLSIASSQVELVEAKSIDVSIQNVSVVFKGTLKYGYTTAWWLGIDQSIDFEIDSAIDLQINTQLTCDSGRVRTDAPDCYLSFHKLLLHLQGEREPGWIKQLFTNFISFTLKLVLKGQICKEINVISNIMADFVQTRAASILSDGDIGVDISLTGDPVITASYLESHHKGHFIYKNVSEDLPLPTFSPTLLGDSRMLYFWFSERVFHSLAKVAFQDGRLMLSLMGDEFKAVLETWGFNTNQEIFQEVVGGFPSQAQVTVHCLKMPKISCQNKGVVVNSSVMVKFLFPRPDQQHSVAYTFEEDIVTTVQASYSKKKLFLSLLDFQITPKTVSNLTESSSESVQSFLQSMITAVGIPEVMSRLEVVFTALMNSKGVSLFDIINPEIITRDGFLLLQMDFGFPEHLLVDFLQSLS
In words: In Vitro Assay: CETP Activity Kit (#RB-RPAK) was purchased from Roar Biochemical, Inc. (New York, N.Y., USA). To each well of a 96-well NBS half-area plate (costar #3686), 1.2 ng/well of the donor solution, 1 uL of the acceptor solution and 5 uL compound solution diluted in 100% DMSO were added in a 38 uL of buffer containing 10 mM Tris, 150 mM NaCl and 2 mM EDTA, pH 7.4. Then, the plate was sealed with Themowell Sealers (costar #6524) and followed by a mixing on a plate shaker by MICROPLATE MIXER MPX-96 (IWAKI) at power 3 for 10 sec at room temperature. After 10-min incubation at 37C., the reaction was started by adding 5 uL of rhCETP solution (Cardiovascular Target, New York, N.Y., USA) and mixed on the plate shaker for 10 sec, then the fluorescence intensity at 0 min was measured by a ARVO SX (Perkin Elmerr, USA) at excitation wavelength of 465 nm and emission wavelength of 535 nm. After 120 min-incubation at 37C., fluorescence intensity was measured again.
Compound `CC[C@@H]1C[C@H](N(Cc2cc(C(F)(F)F)cc(C(F)(F)F)c2)c2ncc(-c3cnn(C)c3)cn2)CN1c1nc(N2CCC(C(=O)O)CC2)ncc1Cl` gave a pIC50 of 7.11.
The compound `CC[C@@H]1C[C@H](N(Cc2cc(C(F)(F)F)cc(C(F)(F)F)c2)c2ncc(-c3cnn(C)c3)cn2)CN1C(=O)OC(C)C` gave a negative-log IC50 (pIC50) of 7.64.
In turn, `CC[C@@H]1C[C@H](N(Cc2cc(C(F)(F)F)cc(C(F)(F)F)c2)c2ncc(-c3cnn(C)c3)cn2)CN1C(=O)OCC1(C)COC1` gave a negative logarithm of the IC50 (pIC50) of 7.28.
With `CC[C@@H]1C[C@H](N(Cc2cc(C(F)(F)F)cc(C(F)(F)F)c2)c2ncc(N3CCOCC3)cn2)CN1c1nc(N2CCC(C(=O)O)CC2)ncc1Cl`, the pIC50 was 6.89.
